From publication PMC12567096, “An Efficacy- and In Vivo Exposure-Oriented Integrated Study to Investigate the Effective Components of Qishen Granule” (Pharmaceuticals, 2025)

Columns and labels:
[1] = Concentrations of 24 analytes in QSG treated plasma (Table S5); settings: for Exposure level in vivo (in words) / Concentration: QSG treated plasma; for Exposure level in vivo (in words): Table S5; for concentration at 0.5 h / concentration at 1 h / concentration at 0.08 h / concentration at 0.17 h / concentration at 2 h / concentration at 4 h / concentration at 8 h / concentration at 12 h: Sprague Dawley, rat, 7 g/kg; for Concentration: n = 5
OGD/R-induced H9c2 cells = assay: Protective effect on OGD/R-induced H9c2 cells (CCK-8 cell viability); format: cell-based, rat; settings: 1, 10, 25, 50 and 100 μM prior to OGD/R, vs model group
Protocol: (§1) Rat myocardial H9c2 cells (purchased from China Infrastructure of Cell Line Resources, Institute of Basic Medical Sciences, Chinese Academy of Medical Sciences) were cultured in DMEM supplemented with 10% fetal bovine serum (FBS), Penicillin (100 U/mL), and Streptomycin (100 μg/mL) at 37 °C under a humidified atmosphere of 5% CO2 and 95% air. For OGD/R treatment, H9c2 cells were cultured in glucose-free DMEM under hypoxic conditions (95%N2 + 5%CO2) for 4 h at 37 °C followed by complete medium under normal conditions with air (95%) and CO2 (5%) for 2 h. A control group was maintained under normal culture conditions (with glucose-containing DMEM and 5% CO2) without undergoing OGD/R treatment. CCK8 was used to assess cell viability. After treatment, H9c2 cells were seeded in 96-well plates, with each well supplemented with 10 μL of CCK-8 solution and then incubated for 1 h. Finally, the absorbance at 450 nm was detected by a microplate reader (Model […] 200 PRO, TECAN, Grodig, Austria).
(§2) When evaluating the cytotoxicities of the absorbed compounds, the H9c2 cells were seeded in 96-well plates at a density of 1 × 10^4 cells/well; when cells reached 80% confluence, they were treated with 25 and 50 μM of the 24 analytes to screen the non-toxic concentration ranges. Afterward, the protective effects were verified by assessing the cell viability when treating with different concentrations (1, 10, 25, 50, and 100 μM) of the analytes prior to OGD/R treatment.

H9c2 cells = assay: Cytotoxicity on H9c2 cells (CCK-8); format: cell-based, rat; settings: H9c2 cells, n=3; for inhibition at 25 µM / inhibition at 50 µM / inhibition at 100 µM: Rattus norvegicus, read-out: Inhibition rate
Protocol: as §1
as §2, with “they were treated with 25 and 50 μM of the 24 analytes to screen the non-toxic concentration ranges.” left out

[2] = Pharmacokinetic study in rats after oral administration of QSG
Protocol: Ion source parameters were set as follows: temperatures of drying gas and sheath gas were 300 °C and 300 °C, flow rates of drying gas and sheath gas were 7 L/min and 11 L/min, the nebulizer was set at 35 psig, capillary voltage was 3500 V (−), and nozzle voltage was 2000 V (−). […] Chromatographic separations were conducted on a ZORBAX Eclipse Plus C18 column (3.0 × 50 mm, 1.8 μm, Agilent Technologies, California, USA). The mobile phase was composed of 0.1% aqueous FA (A, (v/v)) and 0.1% formic acid methanol (B), the flow rate was set at 0.5 mL/min, and the column oven was maintained at 40 °C.
Protein precipitation was carried out for each time point for plasma samples, calibration samples, or QC samples by introducing four volumes of acetonitrile containing 400 ng/mL of icariin. Then, 10 μL 10% aqueous ascorbic acid (v/v) was spiked into each sample to prevent the oxidation of phenolic compounds. […] An aliquot (450 μL) of the supernatant was transferred and dried under nitrogen vacuum.
The pharmacokinetic parameters were calculated by DAS software (version 2.0) for a non-compartmental analysis.

[3] = rat plasma, single oral 7 g/kg QSG, n = 6

Compound | H9c2 cell survival after OGD/R (in words) (OGD/R-induced H9c2 cells) | inhibition at 25 µM (H9c2 cells; 25 μM) | inhibition at 50 µM (H9c2 cells; 50 μM) | inhibition at 100 µM (H9c2 cells; 100 μM) | Concentration ([1]; 0.5 h) | Concentration ([1]; 1 h) | Inhibition rate (H9c2 cells; 25 μM) | Inhibition rate (H9c2 cells; 50 μM) | Inhibition rate (H9c2 cells; 100 μM) | other results
COC(=O)C1=CO[C@@H](O[C@@H]2O[C@H](CO)[C@@H](O)[C@H](O)[C@H]2O)[C@@H]2[C@@H](C)[C@H](O)C[C@H]12 [7-epi-loganin] | significantly improve H9c2 cell survival rates | 2.8 ± 0.9% | 7.1 ± 4.3% | 10.3 ± 3.5% | – | – | – | – | – | Exposure level in vivo (in words) [1]: relatively lower exposure levels; concentration at 0.5 h ([1]; plasma, oral): 1.73 ± 0.49 ng/mL; concentration at 1 h ([1]; plasma, oral): 1.5 ± 0.298 ng/mL
COC[C@]12O[C@H]1[C@@H](O)[C@@H]1C=CO[C@@H](O[C@@H]3O[C@H](CO)[C@@H](O)[C@H](O)[C@H]3O)[C@@H]12 [10-methoxyl catalpol] | – | – | – | – | 2.315 ± 0.283 ng/mL | 1.293 ± 0.135 ng/mL | 2.8 ± 0.9% | 5.1 ± 4.3% | 9.1 ± 4.2% | –
COc1ccc(CCO[C@@H]2O[C@H](CO[C@@H]3OC[C@H](O)[C@H](O)[C@H]3O)[C@@H](OC(=O)/C=C/c3ccc(O)c(OC)c3)[C@H](O[C@@H]3O[C@@H](C)[C@H](O)[C@@H](O)[C@H]3O)[C@H]2O)cc1O [Angoroside C] | significantly improve H9c2 cell survival rates | – | – | – | 4.290 ± 1.023 ng/mL | 3.109 ± 0.501 ng/mL | 3.6 ± 4.5% | 12.7 ± 5.1% | 18.7 ± 1.1% | Concentration ([1]; 2 h): 1.029 ± 0.203 ng/mL; Exposure level in vivo (in words) [1]: relatively lower exposure levels
COc1ccc(-c2coc3cc(O[C@@H]4O[C@H](CO)[C@@H](O)[C@H](O)[C@H]4O)ccc3c2=O)cc1O [Calycosin-7-O-glucoside, Calycosin-7-O-D-glucoside] | – | – | – | – | 8.612 ± 0.681 ng/mL | 3.192 ± 1.624 ng/mL | -1.2 ± 3.5% | 7.8 ± 6.4% | 11.8 ± 6.1% | Concentration ([1]; 0.08 h): 1.161 ± 0.988 ng/mL; Concentration ([1]; 0.17 h): 2.081 ± 1.576 ng/mL; Concentration ([1]; 2 h): 3.096 ± 2.601 ng/mL; Concentration ([1]; 4 h): 1.198 ± 1.103 ng/mL; Concentration ([1]; 8 h): 1.241 ± 0.963 ng/mL; Concentration ([1]; 12 h): 0.536 ± 0.271 ng/mL
COc1ccc(-c2coc3cc(O)ccc3c2=O)cc1O [Calycosin] | – | 6.8 ± 3.9% | 6.3 ± 8.3% | 9.3 ± 4.2% | – | – | – | – | – | concentration at 0.08 h ([1]; plasma, oral): 0.966 ± 0.737 ng/mL; concentration at 0.17 h ([1]; plasma, oral): 2.15 ± 0.363 ng/mL; concentration at 0.5 h ([1]; plasma, oral): 2.51 ± 0.672 ng/mL; concentration at 1 h ([1]; plasma, oral): 1.7 ± 0.563 ng/mL; concentration at 2 h ([1]; plasma, oral): 0.825 ± 0.375 ng/mL; concentration at 4 h ([1]; plasma, oral): 0.589 ± 0.46 ng/mL; concentration at 8 h ([1]; plasma, oral): 0.737 ± 0.203 ng/mL; concentration at 12 h ([1]; plasma, oral): 0.647 ± 0.195 ng/mL
COc1ccc(-c2coc3cc(O[C@@H]4O[C@H](CO)[C@@H](O)[C@H](O)[C@H]4O)ccc3c2=O)cc1 [Formononetin-7-O-glucoside, Formononetin-7-O-D-glucoside] | – | – | – | – | – | – | 0.8 ± 0.9% | 9.1 ± 4.3% | 11.1 ± 2.3% | –
COC[C@@]12CC[C@H](OC)[C@]34C(C([C@H](OC)[C@H]13)[C@]1(OC(C)=O)[C@H]3[C@@H](OC(=O)c5ccccc5)[C@](O)(C[C@H]34)[C@@H](OC)[C@@H]1O)N(C)C2 [Hypaconitine] | – | 13.7 ± 4.1% | 20.8 ± 3.2% | 32.8 ± 1.2% | – | – | – | – | – | concentration at 0.08 h ([1]; in vivo): 0.048 ± 0.019 ng/mL; concentration at 0.17 h ([1]; in vivo): 0.202 ± 0.096 ng/mL; concentration at 0.5 h ([1]; in vivo): 0.308 ± 0.041 ng/mL; concentration at 1 h ([1]; in vivo): 0.34 ± 0.066 ng/mL; concentration at 2 h ([1]; in vivo): 0.331 ± 0.081 ng/mL; concentration at 4 h ([1]; in vivo): 0.212 ± 0.084 ng/mL; concentration at 8 h ([1]; in vivo): 0.071 ± 0.049 ng/mL; concentration at 12 h ([1]; in vivo): 0.005 ± 0.013 ng/mL
O=C(/C=C/c1ccc(O[C@@H]2O[C@H](CO)[C@@H](O)[C@H](O)[C@H]2O)cc1)c1ccc(O)cc1O [Isoliquiritin] | – | -18.3 ± 3.6% | 8.5 ± 2.9% | 13.5 ± 2.3% | – | – | – | – | – | concentration at 0.08 h ([1]; in vivo): 0.332 ± 0.496 ng/mL; concentration at 0.17 h ([1]; in vivo): 1.24 ± 0.874 ng/mL; concentration at 0.5 h ([1]; in vivo): 2.54 ± 0.684 ng/mL; concentration at 1 h ([1]; in vivo): 1.31 ± 0.788 ng/mL; concentration at 2 h ([1]; in vivo): 0.456 ± 0.573 ng/mL; concentration at 4 h ([1]; in vivo): 0.075 ± 0.309 ng/mL; concentration at 8 h ([1]; in vivo): 0.078 ± 0.159 ng/mL; concentration at 12 h ([1]; in vivo): 0.158 ± 0.323 ng/mL
O=C1C[C@@H](c2ccc(O)cc2)Oc2cc(O)ccc21 [Liquiritigenin] | – | – | – | – | 4.378 ± 0.959 ng/mL | 3.255 ± 1.246 ng/mL | -4.4 ± 2.2% | 2.3 ± 3.3% | 8.5 ± 3.6% | Concentration ([1]; 0.08 h): 1.163 ± 0.835 ng/mL; Concentration ([1]; 0.17 h): 3.082 ± 0.977 ng/mL; Concentration ([1]; 2 h): 2.336 ± 1.150 ng/mL; Concentration ([1]; 4 h): 2.064 ± 0.888 ng/mL; Concentration ([1]; 8 h): 2.239 ± 1.209 ng/mL; Concentration ([1]; 12 h): 2.987 ± 1.135 ng/mL
O=C1C[C@@H](c2ccc(O[C@@H]3O[C@H](CO)[C@@H](O)[C@H](O)[C@H]3O)cc2)Oc2cc(O)ccc21 [Liquiritin] | – | -7.4 ± 7.5% | 11.6 ± 0.6% | 17.6 ± 1.2% | – | – | – | – | – | concentration at 0.08 h ([1]; plasma, oral): 2.07 ± 1.32 ng/mL; concentration at 0.17 h ([1]; plasma, oral): 11.8 ± 10.9 ng/mL; concentration at 0.5 h ([1]; plasma, oral): 26.8 ± 4.42 ng/mL; concentration at 1 h ([1]; plasma, oral): 17.8 ± 5.29 ng/mL; concentration at 2 h ([1]; plasma, oral): 8.3 ± 2.48 ng/mL; concentration at 4 h ([1]; plasma, oral): 4.02 ± 3.3 ng/mL; concentration at 8 h ([1]; plasma, oral): 2.17 ± 0.609 ng/mL; concentration at 12 h ([1]; plasma, oral): 1.36 ± 2.74 ng/mL
COC(=O)C1=CO[C@@H](O[C@@H]2O[C@H](CO)[C@@H](O)[C@H](O)[C@H]2O)[C@@H]2[C@H](C)O[C@@H](O)C[C@H]12 [Morroniside] | significantly improve H9c2 cell survival rates | -10.6 ± 7.6% | 2.1 ± 5.6% | 8.1 ± 3.9% | – | – | – | – | – | Exposure level in vivo (in words) [1]: relatively lower exposure levels; concentration at 0.5 h ([1]; plasma, oral): 3.05 ± 0.802 ng/mL; concentration at 1 h ([1]; plasma, oral): 2.4 ± 0.829 ng/mL
O=C(/C=C/c1ccc(O)c(O)c1)O[C@@H]1C[C@@](O)(C(=O)O)C[C@@H](O)[C@@H]1O [Neochlorogenic acid] | significantly improve H9c2 cell survival rates | – | – | – | – | – | -12.8 ± 1.3% | 3.8 ± 2.2% | 5.7 ± 2.3% | AUC0→∞ ([2]; Table S12, rats, oral QSG): 1418 ng·h/mL; AUC0→t [2, 3]: 167.1 ± 68.93 ng·h/mL; Cmax [2, 3]: 68.12 ± 4.044 ng/mL; MRT [2, 3]: 6.104 ± 2.911 h; Tmax [2, 3]: 0.398 ± 0.093 h
C=C[C@H]1[C@H](O[C@@H]2O[C@H](CO)[C@@H](O)[C@H](O)[C@H]2O)OC=C(C(=O)O)[C@H]1CC(=O)O [Secologanoside] | – | – | – | – | 4.124 ± 1.235 ng/mL | 2.135 ± 1.024 ng/mL | -15.6 ± 7.9% | 11.0 ± 7.7% | 19.1 ± 3.7% | Concentration ([1]; 2 h): 1.274 ± 0.246 ng/mL
C=C[C@H]1[C@H](O[C@@H]2O[C@H](CO)[C@@H](O)[C@H](O)[C@H]2O)OC=C(C(=O)OC)[C@H]1CC(=O)O [Secoxyloganin] | – | – | – | – | – | – | 3.5 ± 1.2% | 7.9 ± 3.3% | 9.9 ± 2.7% | –
Liquiritin apioside | significantly improve H9c2 cell survival rates | – | – | – | – | – | -25.2 ± 3.5% | -16.2 ± 3.6% | -6.1 ± 2.5% | –
